What was measured:
Assay type in all cases: in vivo
rapeseed [1] = assay: Test Example 5: effect on crop by foliage application, plastic box (symbol g); conditions: 320 g/ha, 3 weeks after application
Outline: (§1)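 Sterilized diluvial soil, plastic box (21 × 13 × 7 cm); spot sowing, ~1.5 cm soil cover; greenhouse 25–30° C.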

soybean = assay: Test Example 5: effect on crop by foliage application, plastic box (symbol d); conditions: 320 g/ha, 3 weeks after application
Outline: as §1

Chenopodium album = assay: Test Example 5: herbicidal effect by foliage application, plastic box (symbol O); conditions: 320 g/ha, 3 weeks after application
Outline: (§2)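 Leaf-applied emulsion, water-diluted to a preset herbicide dose, on two-week-old seedlings raised in a 25° C. to 30° C. greenhouse; injury rated at 3 weeks using earlier criteria.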

Avena fatua [2] = assay: Test Example 4: herbicidal effect by soil treatment (symbol I); conditions: application herbicide amount 320 g/ha
Outline: (§3)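 Seeds were sown in sterilized diluvial soil, covered with about 1.5 cm of soil, and the soil surface was sprayed with a water-diluted emulsion of the compound at a predetermined rate. Plants grew in a greenhouse at 25° C. to 30° C.; effects were scored visually 3 weeks after application.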

Veronica persica = assay: Test Example 5: herbicidal effect by foliage application, plastic box (symbol R); conditions: 320 g/ha, 3 weeks after application
Outline: as §2

Apera spica-venti [3] = assay: Test Example 4: herbicidal effect by soil treatment (symbol L); conditions: application herbicide amount 320 g/ha
Outline: as §3

Apera spica-venti [4] = assay: Test Example 5: herbicidal effect by foliage application, plastic box (symbol L); conditions: 320 g/ha, 3 weeks after application
Outline: as §2

Setaria viridis [5] = assay: Test Example 4: herbicidal effect by soil treatment (symbol G); conditions: application herbicide amount 320 g/ha
Outline: as §3

Abutilon theophrasti = assay: Test Example 5: herbicidal effect by foliage application, plastic box (symbol M); conditions: 320 g/ha, 3 weeks after application
Outline: as §2

Monochoria vaginalis = assay: Test Example 2: herbicidal activity, application during weed generation in submerged conditions (symbol C); conditions: Table 23; application herbicide amount 320 g/ha; grade 0-5 by criteria of Test Example 1
Outline: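 Paddy pot test, submerged (4 cm water), alluvial soil, mixed sowing; greenhouse 25–30° C. Emulsion formulation diluted to predetermined rate, applied onto floodwater at 1–2 leaf stage. Visual herbicidal rating at 3 wk post-treatment.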

Digitaria ciliaris = assay: Test Example 5: herbicidal effect by foliage application, plastic box (symbol F); conditions: 320 g/ha, 3 weeks after application
Outline: as §2

Scirpus juncoides = assay: Test Example 1: herbicidal activity, application before weed generation in submerged conditions (symbol B); conditions: application herbicide amount 320 g/ha
Outline: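 Mixed weed seeds sown in alluvial soil under 4 cm of water, with rice seedlings at the 2.5-leaf stage added. Same-day treatment: emulsion diluted to a set herbicide amount onto the water. Three weeks at 25–30 °C, then graded on a six-step scale.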

[6] = test system: Echinochloa crus-galli var. crus-galli; assay: Test Example 5: herbicidal effect by foliage application, plastic box (symbol H); conditions: 320 g/ha, 3 weeks after application
Outline: as §2

rice = assay: Test Example 4: effect on crop by soil treatment (symbol b); conditions: application herbicide amount 320 g/ha
Outline: (§4)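 Sterilized diluvial soil, spot sowing, ~1.5 cm soil cover; greenhouse 25–30° C.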

Avena fatua [7] = assay: Test Example 5: herbicidal effect by foliage application, plastic box (symbol I); conditions: 320 g/ha, 3 weeks after application
Outline: as §2

Setaria viridis [8] = assay: Test Example 5: herbicidal effect by foliage application, plastic box (symbol G); conditions: 320 g/ha, 3 weeks after application
Outline: as §2

rapeseed [9] = assay: Test Example 4: effect on crop by soil treatment (symbol g); conditions: application herbicide amount 320 g/ha
Outline: as §4

Row | Compound | g: rapeseed, effect on crop grade (rapeseed [1]) | d: soybean, effect on crop grade (soybean) | O: Chenopodium album, herbicidal effect grade (Chenopodium album) | I (Avena fatua) herbicidal effect grade (Avena fatua [2]) | R: Veronica persica, herbicidal effect grade (Veronica persica) | L (Apera spica-venti) herbicidal effect grade (Apera spica-venti [3]) | L: Apera spica-venti, herbicidal effect grade (Apera spica-venti [4]) | G (Setaria viridis) herbicidal effect grade (Setaria viridis [5]) | M: Abutilon theophrasti, herbicidal effect grade (Abutilon theophrasti) | Herbicidal effect grade, C: Monochoria vaginalis (Monochoria vaginalis) | F: Digitaria ciliaris, herbicidal effect grade (Digitaria ciliaris) | Herbicidal effect grade, B: Scirpus juncoides (Scirpus juncoides) | H: Echinochloa crus-galli var. crus-galli, herbicidal effect grade [6] | b (directly sowed rice plant) effect on crop grade (rice) | I: Avena fatua, herbicidal effect grade (Avena fatua [7]) | G: Setaria viridis, herbicidal effect grade (Setaria viridis [8]) | g (rapeseed) effect on crop grade (rapeseed [9]) | also measured
1 | CCON=C(C)CC1CC(O)=C(c2c(C)cc(C)cc2C)C1=O (centres unmarked) [1-003] | 4 (Herbicidal ratio of 70% or higher and lower than 90%) | 3 (Herbicidal ratio of 40% or higher and lower than 70%) | 3 (Herbicidal ratio of 40% or higher and lower than 70%) | 4 (Herbicidal ratio of 70% or higher and lower than 90%) | 3 (Herbicidal ratio of 40% or higher and lower than 70%) | 5 (Herbicidal ratio of 90% or more (almost completely withered)) | 5 (Herbicidal ratio of 90% or more (almost completely withered)) | 3 (Herbicidal ratio of 40% or higher and lower than 70%) | 4 (Herbicidal ratio of 70% or higher and lower than 90%) | 3 (Herbicidal ratio of 40% or higher and lower than 70%) | 5 (Herbicidal ratio of 90% or more (almost completely withered)) | 4 (Herbicidal ratio of 70% or higher and lower than 90%) | 5 (Herbicidal ratio of 90% or more (almost completely withered)) | 5 (Herbicidal ratio of 90% or more (almost completely withered)) | 5 (Herbicidal ratio of 90% or more (almost completely withered)) | 5 (Herbicidal ratio of 90% or more (almost completely withered)) | 4 (Herbicidal ratio of 70% or higher and lower than 90%) | –
2 | CC(CC1CC(O)=C(c2c(C)cc(C)cc2C)C1=O)=NOCC(=O)N1CCOCC1 (centres unmarked) [1-025] | 4 (Herbicidal ratio of 70% or higher and lower than 90%) | 3 (Herbicidal ratio of 40% or higher and lower than 70%) | 4 (Herbicidal ratio of 70% or higher and lower than 90%) | 3 (Herbicidal ratio of 40% or higher and lower than 70%) | 3 (Herbicidal ratio of 40% or higher and lower than 70%) | 5 (Herbicidal ratio of 90% or more (almost completely withered)) | 5 (Herbicidal ratio of 90% or more (almost completely withered)) | 5 (Herbicidal ratio of 90% or more (almost completely withered)) | 1 (Herbicidal ratio of 5% or higher and lower than 20%) | 0 (Herbicidal ratio of 5% or lower (almost no effect)) | 5 (Herbicidal ratio of 90% or more (almost completely withered)) | 2 (Herbicidal ratio of 20% or higher and lower than 40%) | 4 (Herbicidal ratio of 70% or higher and lower than 90%) | 5 (Herbicidal ratio of 90% or more (almost completely withered)) | 5 (Herbicidal ratio of 90% or more (almost completely withered)) | 4 (Herbicidal ratio of 70% or higher and lower than 90%) | 4 (Herbicidal ratio of 70% or higher and lower than 90%) | –
3 | CSCCON=C(C)CC1CC(O)=C(c2c(C)cc(C)cc2C)C1=O (centres unmarked) [1-029] | 4 (Herbicidal ratio of 70% or higher and lower than 90%) | 1 (Herbicidal ratio of 5% or higher and lower than 20%) | 3 (Herbicidal ratio of 40% or higher and lower than 70%) | 1 (Herbicidal ratio of 5% or higher and lower than 20%) | 1 (Herbicidal ratio of 5% or higher and lower than 20%) | 5 (Herbicidal ratio of 90% or more (almost completely withered)) | 5 (Herbicidal ratio of 90% or more (almost completely withered)) | 5 (Herbicidal ratio of 90% or more (almost completely withered)) | 1 (Herbicidal ratio of 5% or higher and lower than 20%) | 0 (Herbicidal ratio of 5% or lower (almost no effect)) | 5 (Herbicidal ratio of 90% or more (almost completely withered)) | 0 (Herbicidal ratio of 5% or lower (almost no effect)) | 5 (Herbicidal ratio of 90% or more (almost completely withered)) | 5 (Herbicidal ratio of 90% or more (almost completely withered)) | 5 (Herbicidal ratio of 90% or more (almost completely withered)) | 5 (Herbicidal ratio of 90% or more (almost completely withered)) | 3 (Herbicidal ratio of 40% or higher and lower than 70%) | –
4 | CON=C(C)CC1CC(OC(=O)COc2ccc(Cl)cc2)=C(c2c(C)cc(C)cc2C)C1=O (centres unmarked) [1-044] | 4 (Herbicidal ratio of 70% or higher and lower than 90%) | 4 (Herbicidal ratio of 70% or higher and lower than 90%) | – | 2 (Herbicidal ratio of 20% or higher and lower than 40%) | 0 (Herbicidal ratio of 5% or lower (almost no effect)) | 5 (Herbicidal ratio of 90% or more (almost completely withered)) | 5 (Herbicidal ratio of 90% or more (almost completely withered)) | 5 (Herbicidal ratio of 90% or more (almost completely withered)) | 4 (Herbicidal ratio of 70% or higher and lower than 90%) | 3 (Herbicidal ratio of 40% or higher and lower than 70%) | 5 (Herbicidal ratio of 90% or more (almost completely withered)) | 5 (Herbicidal ratio of 90% or more (almost completely withered)) | 5 (Herbicidal ratio of 90% or more (almost completely withered)) | 5 (Herbicidal ratio of 90% or more (almost completely withered)) | 5 (Herbicidal ratio of 90% or more (almost completely withered)) | 5 (Herbicidal ratio of 90% or more (almost completely withered)) | 4 (Herbicidal ratio of 70% or higher and lower than 90%) | –
5 | CON=C(C)CC1CC(OC(=O)COc2ccc(F)cc2)=C(c2c(C)cc(C)cc2C)C1=O (centres unmarked) [1-073] | – | – | – | 4 (Herbicidal ratio of 70% or higher and lower than 90%) | – | 5 (Herbicidal ratio of 90% or more (almost completely withered)) | – | 5 (Herbicidal ratio of 90% or more (almost completely withered)) | – | 2 (Herbicidal ratio of 20% or higher and lower than 40%) | – | 5 (Herbicidal ratio of 90% or more (almost completely withered)) | – | 5 (Herbicidal ratio of 90% or more (almost completely withered)) | – | – | 4 (Herbicidal ratio of 70% or higher and lower than 90%) | g: rapeseed, effect on crop (criteria 0-5) (rapeseed [1]): 4 (Herbicidal ratio of 70% or higher and lower than 90%); d: soybean, effect on crop (criteria 0-5) (soybean): 3 (Herbicidal ratio of 40% or higher and lower than 70%); R: Veronica persica, herbicidal effect (criteria 0-5) (Veronica persica): 3 (Herbicidal ratio of 40% or higher and lower than 70%); L: Apera spica-venti, herbicidal effect (criteria 0-5) (Apera spica-venti [4]): 5 (Herbicidal ratio of 90% or more (almost completely withered)); M: Abutilon theophrasti, herbicidal effect (criteria 0-5) (Abutilon theophrasti): 4 (Herbicidal ratio of 70% or higher and lower than 90%); F: Digitaria ciliaris, herbicidal effect (criteria 0-5) (Digitaria ciliaris): 5 (Herbicidal ratio of 90% or more (almost completely withered)); H: Echinochloa crus-galli var. crus-galli, herbicidal effect (criteria 0-5) [6]: 5 (Herbicidal ratio of 90% or more (almost completely withered)); I: Avena fatua, herbicidal effect (criteria 0-5) (Avena fatua [7]): 5 (Herbicidal ratio of 90% or more (almost completely withered)); G: Setaria viridis, herbicidal effect (criteria 0-5) (Setaria viridis [8]): 5 (Herbicidal ratio of 90% or more (almost completely withered))

Source: patent publication US11000033B2, “Ketone or oxime compound, and herbicide” (NISSAN CHEMICAL CORPORATION, priority 2014, dated 2021)
